Laboratory results: ChEMBL document CHEMBL3286148, “Aminoazabenzimidazoles, a novel class of orally active antimalarial agents” (J Med Chem, 2014)

Test system: Plasmodium falciparum
Experiment: microbe, parasite or virus in culture
Conditions: K1, 72 h

Q: For Cc1nc(N)n(CC(O)c2ccc(Cl)cc2Cl)c1C (racemic), which IC50 is on record?
A: The IC50 was 200 nM.

Q: For Nc1nc2ccc(OC3CNC3)nc2n1CC(O)c1ccc(C(F)(F)F)cc1Cl (racemic), which IC50 is on record?
A: Its IC50 is over 500 nM.

Q: With Nc1nnc(C2CC2)n1CC(O)c1ccc(C(F)(F)F)cc1Cl (racemic) as the compound, how does the IC50 read?
A: Its IC50 is over 2000 nM.

Q: For Nc1nc(-c2ccc(F)cc2)cn1CC(O)c1ccc(C(F)(F)F)cc1Cl (racemic), which IC50 is on record?
A: The IC50 was 60 nM.

Q: With Nc1nnnn1CC(O)c1c(Cl)cccc1Cl (racemic) as the compound, how does the IC50 read?
A: Its IC50 is over 2000 nM.

Q: Which IC50 does the source give for Nc1nc2cnccc2n1CC(O)c1ccc(Cl)cc1Cl (racemic) here?
A: Its IC50 is over 500 nM.

Q: With Nc1nc2ccc(Cl)cc2n1CC(O)c1cccc(Cl)c1Cl (racemic) as the compound, how does the IC50 read?
A: The IC50 was 40 nM.

Q: With Nc1nc2ccc(C(=O)NC3CC3)nc2n1CC(O)c1ccc(Cl)cc1Cl (racemic) as the compound, how does the IC50 read?
A: The IC50 was over 500 nM.

Test system: not listed separately
Experiment: Clearance in human liver microsomes
Format: ADME
Conditions: read-out: CLH

Q: With Nc1nc2ccc(OC3CNC3)nc2n1CC(O)c1ccc(C(F)(F)F)cc1Cl (racemic) as the compound, how does the microsomal CLint read?
A: The microsomal CLint was under 4 µL/min/mg.

Q: With Nc1nc2cnccc2n1CC(O)c1ccc(Cl)cc1Cl (racemic) as the compound, how does the microsomal CLint read?
A: Its microsomal CLint is 5 µL/min/mg.

Q: Which microsomal CLint does the source give for Nc1nc2ccc(Cl)cc2n1CC(O)c1cccc(Cl)c1Cl (racemic) here?
A: Its microsomal CLint is 49 µL/min/mg.

Test system: not listed separately
Experiment: Clearance in rat hepatocytes assessed per 1E6 cells
Format: ADME, cell-based, Hepatocyte
Conditions: read-out: CLH

Q: Which hepatocyte CLint does the source give for Nc1nc2ccc(OC3CNC3)nc2n1CC(O)c1ccc(C(F)(F)F)cc1Cl (racemic) here?
A: The hepatocyte CLint was 14 µL/min/1e6 cells.

Q: Which hepatocyte CLint does the source give for Nc1nc2cnccc2n1CC(O)c1ccc(Cl)cc1Cl (racemic) here?
A: Its hepatocyte CLint is 14 µL/min/1e6 cells.

Q: With Nc1nc2ccc(Cl)cc2n1CC(O)c1cccc(Cl)c1Cl (racemic) as the compound, how does the hepatocyte CLint read?
A: Its hepatocyte CLint is 22 µL/min/1e6 cells.

Test system: Plasmodium falciparum
Experiment: microbe, parasite or virus in culture
Conditions: NF54, 72 h

Q: With Cc1nc(N)n(CC(O)c2ccc(Cl)cc2Cl)c1C (racemic) as the compound, how does the IC50 read?
A: The IC50 was 300 nM.

Q: With Nc1nc2ccc(OC3CNC3)nc2n1CC(O)c1ccc(C(F)(F)F)cc1Cl (racemic) as the compound, how does the IC50 read?
A: The IC50 was over 2000 nM.

Q: For Nc1nnc(C2CC2)n1CC(O)c1ccc(C(F)(F)F)cc1Cl (racemic), which IC50 is on record?
A: The IC50 was over 2000 nM.

Q: For Nc1nc(-c2ccc(F)cc2)cn1CC(O)c1ccc(C(F)(F)F)cc1Cl (racemic), which IC50 is on record?
A: Its IC50 is 140 nM.

Q: Which IC50 does the source give for Nc1nnnn1CC(O)c1c(Cl)cccc1Cl (racemic) here?
A: Its IC50 is over 2000 nM.

Q: For Nc1nc2cnccc2n1CC(O)c1ccc(Cl)cc1Cl (racemic), which IC50 is on record?
A: Its IC50 is over 2000 nM.

Q: Which IC50 does the source give for Nc1nc2ccc(Cl)cc2n1CC(O)c1cccc(Cl)c1Cl (racemic) here?
A: The IC50 was 320 nM.

Q: With Nc1nc2ccc(C(=O)NC3CC3)nc2n1CC(O)c1ccc(Cl)cc1Cl (racemic) as the compound, how does the IC50 read?
A: The IC50 was over 2000 nM.

Test system: not listed separately
Experiment: Selectivity index, ratio of IC50 for human A549 cells to IC50 for Plasmodium falciparum
Format: toxicity, cell-based
Conditions: read-out: Ratio IC50

Q: For Cc1nc(N)n(CC(O)c2ccc(Cl)cc2Cl)c1C (racemic), which selectivity ratio is on record?
A: The selectivity ratio was 220.

Q: With Nc1nc2ccc(OC3CNC3)nc2n1CC(O)c1ccc(C(F)(F)F)cc1Cl (racemic) as the compound, how does the selectivity ratio read?
A: Its selectivity ratio is over 50.

Q: Which selectivity ratio does the source give for Nc1nnc(C2CC2)n1CC(O)c1ccc(C(F)(F)F)cc1Cl (racemic) here?
A: Its selectivity ratio is over 50.

Q: With Nc1nc(-c2ccc(F)cc2)cn1CC(O)c1ccc(C(F)(F)F)cc1Cl (racemic) as the compound, how does the selectivity ratio read?
A: The selectivity ratio was 72.

Q: Which selectivity ratio does the source give for Nc1nnnn1CC(O)c1c(Cl)cccc1Cl (racemic) here?
A: The selectivity ratio was over 50.

Q: With Nc1nc2cnccc2n1CC(O)c1ccc(Cl)cc1Cl (racemic) as the compound, how does the selectivity ratio read?
A: Its selectivity ratio is over 25.

Q: For Nc1nc2ccc(Cl)cc2n1CC(O)c1cccc(Cl)c1Cl (racemic), which selectivity ratio is on record?
A: The selectivity ratio was 2.3.

Q: With Nc1nc2ccc(C(=O)NC3CC3)nc2n1CC(O)c1ccc(Cl)cc1Cl (racemic) as the compound, how does the selectivity ratio read?
A: Its selectivity ratio is over 10.

Target: Voltage-gated inwardly rectifying potassium channel KCNH2 (Homo sapiens, UniProt Q12809)
Sequence (Q12809 whole entry): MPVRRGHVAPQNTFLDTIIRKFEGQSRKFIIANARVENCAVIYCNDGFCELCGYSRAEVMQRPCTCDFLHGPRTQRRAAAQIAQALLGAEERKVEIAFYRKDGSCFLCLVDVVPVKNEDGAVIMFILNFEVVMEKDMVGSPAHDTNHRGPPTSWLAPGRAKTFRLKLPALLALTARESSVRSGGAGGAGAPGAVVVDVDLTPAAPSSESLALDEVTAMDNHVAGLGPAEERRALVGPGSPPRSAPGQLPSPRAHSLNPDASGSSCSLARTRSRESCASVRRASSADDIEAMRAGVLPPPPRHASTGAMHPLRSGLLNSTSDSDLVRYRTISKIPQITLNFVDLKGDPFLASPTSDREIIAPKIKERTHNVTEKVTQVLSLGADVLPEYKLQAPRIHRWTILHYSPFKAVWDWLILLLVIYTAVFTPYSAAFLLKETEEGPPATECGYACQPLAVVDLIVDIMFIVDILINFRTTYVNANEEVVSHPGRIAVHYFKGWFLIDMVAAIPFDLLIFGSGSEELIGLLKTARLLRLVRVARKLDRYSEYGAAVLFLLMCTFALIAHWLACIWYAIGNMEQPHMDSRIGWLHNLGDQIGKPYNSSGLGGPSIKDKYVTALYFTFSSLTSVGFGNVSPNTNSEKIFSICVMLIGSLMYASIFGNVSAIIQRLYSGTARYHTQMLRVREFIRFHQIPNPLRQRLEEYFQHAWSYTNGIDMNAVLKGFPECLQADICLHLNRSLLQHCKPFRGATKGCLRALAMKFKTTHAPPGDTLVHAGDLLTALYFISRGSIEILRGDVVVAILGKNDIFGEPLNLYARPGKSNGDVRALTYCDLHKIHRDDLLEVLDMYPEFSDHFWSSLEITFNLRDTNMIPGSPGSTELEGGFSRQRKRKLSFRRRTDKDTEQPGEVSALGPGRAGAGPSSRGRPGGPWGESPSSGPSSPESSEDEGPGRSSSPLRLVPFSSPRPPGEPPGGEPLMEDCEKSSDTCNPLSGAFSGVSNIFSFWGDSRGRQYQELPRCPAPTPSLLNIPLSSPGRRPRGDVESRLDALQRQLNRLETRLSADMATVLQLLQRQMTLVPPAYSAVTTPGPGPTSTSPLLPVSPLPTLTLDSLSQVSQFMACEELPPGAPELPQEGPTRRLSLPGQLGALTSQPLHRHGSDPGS
Experiment: Inhibition of human ERG
Conditions: not given

Q: Which IC50 does the source give for Cc1nc(N)n(CC(O)c2ccc(Cl)cc2Cl)c1C (racemic) here?
A: Its IC50 is over 33300 nM.

Q: With Nc1nc2ccc(OC3CNC3)nc2n1CC(O)c1ccc(C(F)(F)F)cc1Cl (racemic) as the compound, how does the IC50 read?
A: The IC50 was over 33300 nM.

Q: Which IC50 does the source give for Nc1nc(-c2ccc(F)cc2)cn1CC(O)c1ccc(C(F)(F)F)cc1Cl (racemic) here?
A: Its IC50 is 25000 nM.

Q: With Nc1nc2ccc(Cl)cc2n1CC(O)c1cccc(Cl)c1Cl (racemic) as the compound, how does the IC50 read?
A: The IC50 was over 33300 nM.

Test system: not listed separately
Experiment: Clearance in mouse liver microsomes
Format: ADME
Conditions: read-out: CLH

Q: With Nc1nc2cnccc2n1CC(O)c1ccc(Cl)cc1Cl (racemic) as the compound, how does the microsomal CLint read?
A: The microsomal CLint was 41 µL/min/mg.
